Experimental data: US9597407B2, “Targeted antimicrobial moieties” (C3 Jian, Inc., priority 2009, dated 2017)
“Also recorded” adds a separate entry of the source.

System: bacteria
Experiment: Binding of targeting peptides to microorganisms (Table 3)
Conditions: preferably 1x PBS
[1] = microorganism the targeting peptide binds, binding in aqueous buffers that varied with peptide solubility
[2] = microorganism bound by the targeting peptide, binding in aqueous buffers chosen by peptide solubility
[3] = peptide binding in aqueous buffers that varied depending on peptide solubility
[4] = peptide binding in aqueous buffers varied by peptide solubility

Substance: 1T-297 (RSLRLNNALTKLPKLWYNRIKEAFYAYNDYDK; Peptide with targeting and/or antimicrobial activity) [Peptide 1T-297]
- Target(s) [1]: A. naeslundii; also recorded: F. nucleatum; also recorded: T. denticola; also recorded: S. mitis; also recorded: S. mutans; also recorded: S. oralis

Substance: PF-237 (YVKPKVGVHE; Peptide with targeting and/or antimicrobial activity)
- Target(s) [2]: S. epidermidis

Substance: PF-648 (ARRYPAAGS; Peptide with targeting and/or antimicrobial activity)
- Target(s) (microorganism bound by the targeting peptide) [3]: S. mutans; also recorded: E. coli

Substance: 1T-106 (DALRRSRSQGRRHR; Peptide with targeting and/or antimicrobial activity) [Peptide 1T-106]
- Target(s) (microorganism bound by the targeting peptide) [4]: S. gordonii; also recorded: S. mitis; also recorded: S. mutans; also recorded: S. oralis; also recorded: S. salivarious

Substance: PF-716 (HGENHHHKSDEKDNDSSEKKD; Peptide with targeting and/or antimicrobial activity)
- Target(s) (microorganism bound by the targeting peptide) [3]: S. mutans

Substance: 1T-41 (KRGSKIVIAIAVVLIVLAGVWVW; Peptide with targeting and/or antimicrobial activity) [Peptide 1T-41]
- Target(s) (microorganism bound by the targeting peptide) [4]: S. mutans; also recorded: S. aureus; also recorded: S. epidermidis; also recorded: C. jeikeium; also recorded: C. striatum; also recorded: P. aeruginosa

Substance: PF-481 (DELYEIMDKVIEEFNKDIEQNNNNGNNEDLTENKIN; Peptide with targeting and/or antimicrobial activity)
- Target(s) (microorganisms bound by the targeting peptide) [3]: C. jeikeium

Substance: 1T-79 (FGTPWSITNFWKKNFNDRPDFDSDRRRY; Peptide with targeting and/or antimicrobial activity) [Peptide 1T-79]
- Target(s) (microorganism bound by the targeting peptide) [4]: S. pneumoniae

Substance: PF-491 (IHQYSSKPDIVGQEAKTVQQINS; Peptide with targeting and/or antimicrobial activity)
- Target(s) (microorganisms bound by the targeting peptide) [3]: S. mutans; also recorded: E. coli

Substance: 1T-37 (YIVGALVILAVAGLIYSMLRKA; Peptide with targeting and/or antimicrobial activity) [Peptide 1T-37]
- Target(s) (microorganism bound by the targeting peptide) [4]: S. mutans; also recorded: S. aereus; also recorded: S. epidermidis; also recorded: C. jeikeium; also recorded: C. xerosis; also recorded: C. striatum; also recorded: P. aeruginosa

Substance: PF-304 (LVKDTSDIKNDLNNIEIVTSKNSNDIAKLKSVK; Peptide with targeting and/or antimicrobial activity)
- Target(s) [2]: S. mutans

Substance: PF-014 (HPTDNKHN; Peptide with targeting and/or antimicrobial activity)
- Target(s) [1]: E. coli; also recorded: C. jeikeium

Substance: PF-219 (FLALAVIAGLFKVILIYAAPYLK; Peptide with targeting and/or antimicrobial activity)
- Target(s) [2]: S. epidermidis; also recorded: M. luteus; also recorded: P. aeruginosa; also recorded: A. baumannii

Substance: PF-333 (YMTKKLVEMAEQQMAGKSNR; Peptide with targeting and/or antimicrobial activity)
- Target(s) [2]: S. mutans

Substance: 1T-11 (RISE; Peptide with targeting and/or antimicrobial activity) [Peptide 1T-11]
- Target(s) (microorganism bound by the targeting peptide) [4]: S. mutans; also recorded: S. epidermidis; also recorded: P. aeruginosa

Substance: PF-194 (MKGNKLATAHEQPVKNSAPPL; Peptide with targeting and/or antimicrobial activity)
- Target(s) [2]: C. jeikeium

Substance: PF-C259 (AEIQPHCLSVL; Peptide with targeting and/or antimicrobial activity)
- Target(s) (microorganism bound by the targeting peptide) [3]: F. nucleatum; also recorded: S. mutans

Substance: 1T-99 (MKAWLGQ; Peptide with targeting and/or antimicrobial activity) [Peptide 1T-99]
- Target(s) (microorganism bound by the targeting peptide) [4]: S. gordonii; also recorded: S. mitis; also recorded: S. mutans; also recorded: S. oralis; also recorded: S. sanguinis

Substance: 1T-14 (ALAGLAGLISGK; Peptide with targeting and/or antimicrobial activity) [Peptide 1T-14]
- Target(s) (microorganism bound by the targeting peptide) [4]: S. mutans; also recorded: S. aureus; also recorded: S. epidermidis; also recorded: C. xerosis

Substance: PF-097 (QPTQGEQGTRPRRPTPMRGLLI; Peptide with targeting and/or antimicrobial activity)
- Target(s) [2]: C. jeikeium

Substance: PF-229 (DPILIQIGFTRFALRKAEAEKIEIQVEEGVPA; Peptide with targeting and/or antimicrobial activity)
- Target(s) [2]: S. epidermidis; also recorded: M. luteus; also recorded: P. aeruginosa; also recorded: A. baumannii

Substance: 1T-56 (LALIGAGIWMIRKG; Peptide with targeting and/or antimicrobial activity) [Peptide 1T-56]
- Target(s) (microorganism bound by the targeting peptide) [4]: C. xerosis; also recorded: P. aeruginosa

Substance: PF-780 (AVYDALVALAAAEHRAELATRDARAKDTYEKIGVHVVVAA; Peptide with targeting and/or antimicrobial activity)
- Target(s) (microorganism bound by the targeting peptide) [3]: Mycobacteria spp.

Substance: 1T-195 (AASGFTYCASNGVWHPY; Peptide with targeting and/or antimicrobial activity) [Peptide 1T-195]
- Target(s) [1]: S. mutans

Substance: PF-501 (GSTAHKSPIGSTNNQWGMKKTPTD; Peptide with targeting and/or antimicrobial activity)
- Target(s) (microorganisms bound by the targeting peptide) [3]: S. mutans

Substance: PF-679 (CRARFIRR; Peptide with targeting and/or antimicrobial activity)
- Target(s) (microorganism bound by the targeting peptide) [3]: S. mutans; also recorded: E. coli

Substance: 1T-77 (EMRISRIILDFLFLRKK; Peptide with targeting and/or antimicrobial activity) [Peptide 1T-77]
- Target(s) (microorganism bound by the targeting peptide) [4]: S. pneumoniae

Substance: PF-C068 (LNLFASI; Peptide with targeting and/or antimicrobial activity)
- Target(s) (microorganism bound by the targeting peptide) [3]: A. naeslundii; also recorded: F. nucleatum; also recorded: S. mutans

Substance: 1T-124 (LFDERNKIA; Peptide with targeting and/or antimicrobial activity) [Peptide 1T-124]
- Target(s) (microorganism bound by the targeting peptide) [4]: S. mitis; also recorded: S. mutans; also recorded: S. oralis

Substance: 1T-53 (SDILAEMFEKGELQTLVKDAAAKANA; Peptide with targeting and/or antimicrobial activity) [Peptide 1T-53]
- Target(s) (microorganism bound by the targeting peptide) [4]: P. aeruginosa

Substance: 1T-47 (VIKISVPGQVQMLIP; Peptide with targeting and/or antimicrobial activity) [Peptide 1T-47]
- Target(s) (microorganism bound by the targeting peptide) [4]: S. mutans; also recorded: S. epidermidis; also recorded: P. aeruginosa

Substance: 1T-273 (YNEPNYKWLESYKIYKQRCEDRTGMYYTEET; Peptide with targeting and/or antimicrobial activity) [Peptide 1T-273]
- Target(s) [1]: F. nucleatum; also recorded: P. gingivalis; also recorded: T. denticola; also recorded: S. mitis; also recorded: S. mutans; also recorded: S. oralis

Substance: 1T-34 (AFWLNILLTLLGYIPGIVHAVYIIAKR; Peptide with targeting and/or antimicrobial activity) [Peptide 1T-34]
- Target(s) (microorganism bound by the targeting peptide) [4]: S. aureus; also recorded: S. epidermidis; also recorded: C. jeikeium; also recorded: C. xerosis; also recorded: C. striatum; also recorded: P. aeruginosa

Substance: 1T-49 (SLVRIHDQQPWVTRGAFIDAARTCS; Peptide with targeting and/or antimicrobial activity) [Peptide 1T-49]
- Target(s) (microorganism bound by the targeting peptide) [4]: S. aureus; also recorded: S. epidermidis; also recorded: C. jeikeium; also recorded: P. aeruginosa

Substance: 1T-141 (KKFIILLFILVQGLIFSATKTLSDIIAL; Peptide with targeting and/or antimicrobial activity) [Peptide 1T-141]
- Target(s) (microorganism bound by the targeting peptide) [4]: F. nucleatum; also recorded: P. gingivalis; also recorded: S. epidermidis; also recorded: S. gordonii; also recorded: S. mitis; also recorded: S. mutans; also recorded: S. oralis; also recorded: S. sanguinis

Substance: 1T-261 (SFEKNKIENNLKIAQAYIYIKPKPRICQA; Peptide with targeting and/or antimicrobial activity) [Peptide 1T-261]
- Target(s) [1]: F. nucleatum; also recorded: S. mutans; also recorded: S. oralis; also recorded: S. sanguinis

Substance: PF-284 (MRYITYSLIPRLLSKKVIHQQ; Peptide with targeting and/or antimicrobial activity)
- Target(s) [2]: C. difficile

Substance: PF-409 (DLVQSILSEFKKSG; Peptide with targeting and/or antimicrobial activity)
- Target(s) (microorganisms bound by the targeting peptide) [3]: S. epidermidis and MRSA and C. jeikeium and C. jejuni

Substance: PF-384 (HISKERFEAY; Peptide with targeting and/or antimicrobial activity)
- Target(s) [2]: E. faecalis; also recorded: C. jeikeium; also recorded: C. jejuni

Substance: PF-C008 (AQPRRTWLVNFGEVPSPGLTNDGMPDH; Peptide with targeting and/or antimicrobial activity)
- Target(s) (microorganism bound by the targeting peptide) [3]: A. naeslundii

Substance: 1T-86 (HRKNPVLGVGRRHRAHNVA; Peptide with targeting and/or antimicrobial activity) [Peptide 1T-86]
- Target(s) (microorganism bound by the targeting peptide) [4]: S. mitis; also recorded: S. oralis; also recorded: S. salivarious

Substance: PF-328 (NGNEKAFSEVENLVK; Peptide with targeting and/or antimicrobial activity)
- Target(s) [2]: S. mutans

Substance: TT-306 (KILNEAEGKLLKVIEKNGEIDIEEI; Peptide with targeting and/or antimicrobial activity)
- Target(s) [1]: F. nucleatum

Substance: PF-351 (YLFFKGKKVAEEEATKDEVKR; Peptide with targeting and/or antimicrobial activity)
- Target(s) [2]: S. mutans

Substance: 1T-193 (LMIFDKHANLKYKYGNRSFGVEAIM; Peptide with targeting and/or antimicrobial activity) [Peptide 1T-193]
- Target(s) [1]: S. sanguinis
